Values joined by “and” are separate entries in the source; they are usually repeats but may differ in a detail not shown here. Equal values may be shown once.
Test system: 762968-020-R-J2-PDC spheroids viability
Experiment: Anticancer human tumor 762968-020-R-J2-PDC patient-derived colon carcinoma cell line growth inhibition [TAK]
Settings: spheroids with HUVEC and MSC; for viability, T/C: stronger effect = lower value
Excerpt: Combinatorial screen of targeted agents with TAK-243 and ipatasertib in multi-cell type tumor spheroids
A high-throughput screen of multi-cell type tumor spheroids was designed to identify active combinations of targeted small molecules and TAK-243 or ipatasertib. Complex spheroids include a stromal component modeled by human endothelial cells (HUVEC) and fibroblasts modeled by human mesenchymal stem cells (MSCs). The concentration ranges selected for each drug and investigational agent were based upon clinically achievable concentrations if the clinical Cmax of the agent was known.
Compounds. The drugs and investigational agents: TAK-243 (785004), ipatasertib (767898), everolimus (733504), selumetinib (741078), bortezomib (756655), trametinib (758246), ixazomib (758254), vemurafenib (761431), dabrafenib (764134), sapanisertib (764658), alpelisib (765974), and copanlisib (816437), were obtained from the National Cancer Institute (NCI) Developmental Therapeutics Program Chemical Repository. The FDA-approved anticancer drug set is available from the NCI Developmental Therapeutics Program. […] The stock solutions were prepared in dimethyl sulfoxide (DMSO, Sigma-Aldrich, St. Louis, MO, cat. D2650) at 800-fold the tested concentration and stored at -70 degrees C prior to their use. All drugs and investigational agents were tested over a range starting from a high concentration at or near the clinical Cmax and decreasing in half-log increments. If the clinical Cmax for an agent had not been determined, the highest concentration tested was 10 microM.
NCI60 Cell Culture. NCI60 cell lines were obtained from the NCI Developmental Therapeutics Program Tumor Repository. For each lot of cells, the Repository performed Applied Biosystems AmpFLSTR Identifiler testing with PCR amplification to confirm consistency with the published Identifier STR profile for each cell line. Cells were kept in continuous culture for no more than 20 passages. The optimal seeding densities for each of the cell lines at each time point assessed were determined prior to performing the concentration response studies. Briefly, the NCI60 human tumor lines were grown as monolayers in RPMI 1640 medium supplemented with 10% FBS and 2 mmol/L L-glutamine.
An additional 2 lines were from the NCI60 cell line panel including melanomas, MALME-3M and SK-MEL-2. Pooled donor human umbilical vein endothelial cells (HUVEC, Lonza, cat. CC-2519) and human mesenchymal stem cells (hMSC, Lonza, cat. PT-2501) were purchased from Lonza (Walkersville, MD).
PDMR cell lines were grown in complete medium (DC medium): Dulbecco's modified Eagle's medium (DMEM)/F12 supplemented with 5% fetal bovine serum (FBS), 2 mM L-glutamine, 100 U/mL penicillin and 100 µg/ml streptomycin, 0.4 µg/ml hydrocortisone, 10 ng/ml epidermal growth factor (EGF) recombinant human protein, 24 µg/mL adenine, and 0.1 mg/mL primocin. During culture from frozen stock vials, PDMR cells were cultured in the same medium containing 10 µM Y-27632 (see Table 3). The PDCs were cultured in complete DMEM/F12 media without 10 microM Y-27632 dihydrochloride for at least two passages prior to the screen. The pooled donor HUVEC and hMSC were cultured in endothelial cell growth medium 2 (PromoCell, Heidelberg, Germany, cat. C-22011) and mesenchymal stem cell growth medium 2 (PromoCell, cat. C-28009), respectively. For all experiments, HUVEC and hMSC were used at passages </=5.
For the pre-screen, cell seeding densities were determined from a titration spanning the range from 5,000 to 313 cells per well. The mct-spheroids including 60% malignant cells, 25% HUVEC and 15% MSC dispensed as a mixture into U-bottom Ultra-Low Attachment 384-well plates (Corning, NY)
High-throughput Drug Combination Screening.
Prior to their inoculation into 384-well plates, malignant cells, HUVEC, and hMSC were removed from T flasks using TrypLE express (Thermo Fisher Scientific, cat. 12605036) and harvested by centrifugation for 5 min at 233 x g. […]

[1] = curve of first compound, second compound 0.3 µM
[2] = curve of first compound, second compound 0.949 µM
[3] = curve of first compound, second compound 3 µM
[4] = curve of first compound, second compound 9.49 µM
[5] = curve of first compound, second compound 30 µM
[6] = second compound 0.3 µM, first compound 0.0316 µM
[7] = second compound 0.3 µM, first compound 0.1 µM
[8] = second compound 0.3 µM, first compound 0.316 µM
[9] = second compound 0.3 µM, first compound 1 µM
[10] = second compound 0.949 µM, first compound 0.0316 µM
[11] = second compound 0.949 µM, first compound 0.1 µM
[12] = second compound 0.949 µM, first compound 0.316 µM
[13] = second compound 0.949 µM, first compound 1 µM
[14] = second compound 3 µM, first compound 0.0316 µM
[15] = second compound 3 µM, first compound 0.1 µM
[16] = second compound 3 µM, first compound 0.316 µM
[17] = second compound 3 µM, first compound 1 µM
[18] = second compound 9.49 µM, first compound 0.0316 µM
[19] = second compound 9.49 µM, first compound 0.1 µM
[20] = second compound 9.49 µM, first compound 0.316 µM
[21] = second compound 9.49 µM, first compound 1 µM
[22] = second compound 30 µM, first compound 0.0316 µM
[23] = second compound 30 µM, first compound 0.1 µM
[24] = second compound 30 µM, first compound 0.316 µM
[25] = second compound 30 µM, first compound 1 µM
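Further: spheroids exposed to drug for 7 days before readout.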
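Wherever viability, T/C is given: 100% = DMSO vehicle control wells.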

## COc1c(OCCCN2CCOCC2)ccc2c3n(c(=NC(=O)c4cnc(N)nc4)nc12)CCN3 + CC(C)NCC(C(=O)N1CCN(c2ncnc3c2C(C)CC3O)CC1)c1ccc(Cl)cc1
[1]
  IC50: > 1 µM
[2]
  IC50: > 1 µM
[3]
  IC50: > 1 µM
[4]
  IC50: > 1 µM
[5]
  IC50: > 1 µM
Second compound 0.3 µM, first compound 0.00316 µM
  viability, T/C: 95.4%
Second compound 0.3 µM, first compound 0.01 µM
  viability, T/C: 101%
[6]
  viability, T/C: 89.3%
[7]
  viability, T/C: 85.1%
[8]
  viability, T/C: 69.4%
[9]
  viability, T/C: 66.8%
Second compound 0.949 µM, first compound 0.00316 µM
  viability, T/C: 101%
Second compound 0.949 µM, first compound 0.01 µM
  viability, T/C: 96.7%
[10]
  viability, T/C: 94%
[11]
  viability, T/C: 84.7%
[12]
  viability, T/C: 71.3%
[13]
  viability, T/C: 70%
Second compound 3 µM, first compound 0.00316 µM
  viability, T/C: 105%
Second compound 3 µM, first compound 0.01 µM
  viability, T/C: 100%
[14]
  viability, T/C: 98.3%
[15]
  viability, T/C: 89.9%
[16]
  viability, T/C: 71.6%
[17]
  viability, T/C: 60.2%
Second compound 9.49 µM, first compound 0.00316 µM
  viability, T/C: 102%
Second compound 9.49 µM, first compound 0.01 µM
  viability, T/C: 94.7%
[18]
  viability, T/C: 88.6%
[19]
  viability, T/C: 85%
[20]
  viability, T/C: 78%
[21]
  viability, T/C: 67%
Second compound 30 µM, first compound 0.00316 µM
  viability, T/C: 91.8%
Second compound 30 µM, first compound 0.01 µM
  viability, T/C: 81.3%
[22]
  viability, T/C: 79.4%
[23]
  viability, T/C: 69.5%
[24]
  viability, T/C: 68.7%
[25]
  viability, T/C: 59.1%

## Cc1nc(NC(=O)N2CCCC2C(N)=O)sc1-c1ccnc(C(C)(C)C(F)(F)F)c1 (configuration not stated)
Compound 0.0316 µM
  viability, T/C: 113% and 104%
Compound 0.1 µM
  viability, T/C: 106% and 95.2%
Compound 0.316 µM
  viability, T/C: 106% and 93.9%
Compound 1 µM
  viability, T/C: 92.5% and 89.1%
Compound 3.16 µM
  viability, T/C: 91.7% and 87.4%
Compound 10 µM
  viability, T/C: 92.9% and 87.8%
Curve of compound
  IC50: > 10 µM

## Cc1nc(NC(=O)N2CCCC2C(N)=O)sc1-c1ccnc(C(C)(C)C(F)(F)F)c1 (configuration not stated) + CC(C)NCC(C(=O)N1CCN(c2ncnc3c2C(C)CC3O)CC1)c1ccc(Cl)cc1
[1]
  IC50: > 10 µM
[2]
  IC50: > 10 µM
[3]
  IC50: > 10 µM
[4]
  IC50: > 10 µM
[5]
  IC50: > 10 µM
[6]
  viability, T/C: 119%
[7]
  viability, T/C: 109%
[8]
  viability, T/C: 99.4%
[9]
  viability, T/C: 92.5%
Second compound 0.3 µM, first compound 3.16 µM
  viability, T/C: 98.8%
Second compound 0.3 µM, first compound 10 µM
  viability, T/C: 89.7%
[10]
  viability, T/C: 113%
[11]
  viability, T/C: 111%
[12]
  viability, T/C: 97.2%
[13]
  viability, T/C: 102%
Second compound 0.949 µM, first compound 3.16 µM
  viability, T/C: 99.5%
Second compound 0.949 µM, first compound 10 µM
  viability, T/C: 94.6%
[14]
  viability, T/C: 108%
[15]
  viability, T/C: 109%
[16]
  viability, T/C: 108%
[17]
  viability, T/C: 102%
Second compound 3 µM, first compound 3.16 µM
  viability, T/C: 94.4%
Second compound 3 µM, first compound 10 µM
  viability, T/C: 99.7%
[18]
  viability, T/C: 110%
[19]
  viability, T/C: 108%
[20]
  viability, T/C: 105%
[21]
  viability, T/C: 106%
Second compound 9.49 µM, first compound 3.16 µM
  viability, T/C: 94%
Second compound 9.49 µM, first compound 10 µM
  viability, T/C: 89.6%
[22]
  viability, T/C: 78.6%
[23]
  viability, T/C: 81.5%
[24]
  viability, T/C: 81.8%
[25]
  viability, T/C: 75.7%
Second compound 30 µM, first compound 3.16 µM
  viability, T/C: 74.3%
Second compound 30 µM, first compound 10 µM
  viability, T/C: 69.8%

From PubChem BioAssay AID2060349 (Molecular Pharmacology Branch, DTP, NCI, 2025)
